Assay [1] relates to RPE1 cells. Kind of assay: Cell survival assays in Control, FANCJ K/O and BRCA1 K/O RPE1 cells. It is filed as cell-based, human. As to conditions: for sensitivity at therapeutic range: 0.5 uM Olaparib. The procedure: (§1) Cells were seeded onto 96-well plates (500 cells per well, performed in triplicate for each experiment group) and incubated overnight. The next day, cells were treated with increasing doses of drugs indicated in corresponding figures and maintained in complete media for 5 to 7 days. Percentage survival was measured photometrically using a CellTiter-Glo 2.0 viability assay (Promega) in a microplate reader (Beckman Coulter DTX 880 Multimode Detector).

The subject of another assay is U2OS cells. Kind of assay: Electron microscopy of reversed replication forks. The assay is classed as cell-based, human. The settings on record: 4 mM HU. The protocol: To investigate the effect of TLS on the fine replication fork architecture, psoralen cross-linking coupled to reversed fork intermediates were detected with electron microscopy (EM) with or without elevated TLS. Following 4 mM HU treatment, a substantial fraction of reversed replication forks were found in FANCJ^WT and empty vector U2OS cells (˜26% and 23%, respectively). […] See, FIG. 6D.
For the EM analysis of replication intermediates, 5-10×10^6 U2OS cells treated with or without 4 mM HU were collected and genomic DNA was cross-linked by two rounds of incubation in 10 μg ml-1 4,5,8-trimethylpsoralen (Sigma-Aldrich) and 3 min of irradiation with 366 nm UV light on a precooled metal block10,26. Cells were lysed and genomic DNA was isolated from the nuclei by proteinase K (Roche) digestion and phenol-chloroform extraction. DNA was purified by isopropanol precipitation, digested with PvuII HF in the proper buffer for 3-5 h at 37° C. and replication intermediates were enriched on a benzoylated naphthoylated DEAE-cellulose (Sigma-Aldrich) column. EM samples were prepared by spreading the DNA on carbon-coated grids in the presence of benzyl-dimethyl-alkylammonium chloride and visualized by platinum rotary shadowing. Images were acquired on a transmission electron microscope (JEOL 1200 EX) with side-mounted camera (AMTXR41 supported by AMT software v601) and analyzed with ImageJ (National Institutes of Health). EM analysis allows distinguishing duplex DNA—which is expected to appear as a 10 nm thick fiber, after the platinum/carbon coating step necessary for EM visualization—from ssDNA, which has a reduced thickness of 5-7 nm. The criteria used for the unequivocal assignment of reversed forks include the presence of a rhomboid structure at the junction itself in order to provide a clear indication that the junction is opened up and that the four-way junction structure is not simply the result of the occasional crossing of two DNA molecules^25. […]

Assay [2] deals with pro-TLS U2OS and HCT15 cells. The assay can be described thus: Colony formation assay with ATRi or Wee1i alone or with TLSi. As to conditions: for clonogenic survival: pro-TLS U2OS cells compared to non-TLS dependent cells; for response in colony formation assay: pro-TLS cancer cell line HCT15. The assay is classed as cell-based, human. The protocol: Currently, there is a major clinical effort to combat cancer by induction of replication stress through inhibition of ATR or the mitotic checkpoint kinase, Wee1 (Bukhari et al., 2019). Given that these drugs induce replication gaps, it was considered that if gaps were the sensitizing lesion, TLS could also interfere with their effectiveness. […] See, FIG. 55A, 5B and FIG. 56A-D; (Bukhari et al., 2019).
For colony formation assays either 500 or 1000 cells per well were seeded into 6 well plates and were treated continuously with or without TLSi. Once the colonies had developed, the cells were fixed with 90% methanol and then stained with 0.05% (w/v) crystal violet solution. Plates were then imaged using ChemiDocTM Touch Imaging System (BioRad).

The subject of the next assay is BR5-R1 cells. Kind of assay: Cell survival assays for T2, BR5 and BR5-R1 cells. As to conditions: BR5-R1 PARPi-resistant cells; VE-821 1 μM co-incubated with olaparib. It is filed as cell-based, mouse. The protocol: To determine whether gap suppression mechanisms occur in models of de novo PARPi resistance, cell lines were analyzed that were initially sensitive to PARPi and then had gained PARPi resistance while propagated in tissue culture^41. BRCA1-deficient mouse ovarian tumor cell line, BR5, was utilized and its derived PARPi-resistant cell line, BR5-R1^41. PARPi sensitivity of BR5 was confirmed as compared to BR5-R1 and BRCA1 proficient T2 cells. See, FIG. 41A. […] See, FIG. 41B. […] See, FIGS. 41B and 41C. Thus, BR5-R1 cells resemble FANCJ deficient cells, in that they both lack PARPi induced-sensitivity, lengthening, or gaps, but remain sensitive to cisplatin. See, FIG. 42A. […] See, FIGS. 41A, 41C and 42A.
as §1

Assay [3] relates to TLS cancer vs non-TLS cancer or non-cancer cells. Kind of assay: Combined assay: EdU replication and ssDNA gaps (TLS specificity). The assay is classed as cell-based, human. As to conditions: U2OS cell lines; HU plus ATR inhibitor.
Protocol: A combination assay was performed in a high-throughput manner using 384-well plates. This assay served as a rapid and efficient method to determine the anti-TLS activity of the lead compounds and novel analogues. […] Specifically, the assay identifies compounds that cause TLS cells, but not non-TLS cells, to lose replication (green) and gain ssDNA gaps (red). […] Colors can be identified using a high content and high throughput imaging camera. […] Moreover, red and green fluorescent readouts are readable/quantifiable from full well images at 20×. Several positive and negative controls that may be employed in parallel with the screen to induce gaps or suppress gaps. In particular, under these assay conditions replication with gaps are induced when ATR is inhibited.
A combined assay can be performed to first analyze the ability of these TLSi's to inhibit global replication with concomitant induction of ssDNA in TLS cancer vs non-TLS cancer or non-cancer cells. Second, a colony formation assays in each of these models to determine whether the TLSi's selectively reduce colony formation in TLS cancer cells.
Immunofluorescence was performed as described previously^27. Cells were grown on coverslips in 10 μM BrdU for 48 h before the treatment with drugs. Cells were then treated with the aforementioned drugs for 2 h. […]
Another assay relates to PEO1 and C4-2 cells. Kind of assay: Cell survival assay, cisplatin, PEO1 and C4-2. The assay is classed as cell-based, human. The protocol: Cells were plated at 500 cells per well in the center wells of a 96 well plate in 200 ul volume and allowed to adhere for 36 h. Subsequently, drugs were added in a 100 ul volume and the cells were incubated for 10 days. CellTiter-Glo 2.0 (Promega) was used to quantify cell number by ATP. To prevent evaporation, all blank wells in the 96 well plate were filled with media, and each plate was placed in a humid chamber with PBS.

Assay [4] has as its system BRCA-RAD51 pathway proficient or deficient cell lines. The assay can be described thus: PARPi response of model cell systems (Table 4 summary). The assay is classed as cell-based. The procedure:
In the above tested model systems, HR or FP sometimes correlate with PARPi resistance whereas ssDNA gap suppression always correlates. Moreover, defects in HR or FP sometimes correlate with PARPi sensitivity whereas gaps always correlate.
as §1

Assay [5] concerns RPE1 cells. Kind of assay: DNA fiber assay following olaparib treatment. The assay is classed as cell-based, human. The settings on record: 10 μM olaparib, 2 h. The procedure: Cells were labeled by sequential incorporation of two different nucleotide analogs, IdU and CldU, into nascent DNA strands for the indicated time and conditions. After nucleotide analogs were incorporated in vivo, the cells were collected, washed, spotted, and lysed on positively charged microscope slides by […] spreading buffer for 8 min at room temperature. For experiments with the ssDNA-specific endonuclease S1, after the CldU pulse, cells were treated with CSK100 buffer for 10 min at room temperature, then incubated with S1 nuclease buffer with or without 20 U/mL S1 nuclease (Invitrogen, 18001-016) for 30 min at 37 C. The cells were then scraped in PBS +0.1% BSA and centrifuged at 7,000 rpm for 5 min at 4 C. Cell pellets were resuspended at […] and lysed with lysis solution on slides. Individual DNA fibers were released and spread by tilting the slides at 45 degrees. After air-drying, fibers were fixed by 3:1 methanol/acetic acid at room temperature for 3 min. After air-drying again, fibers were rehydrated in PBS, denatured with 2.5 M HCl for 30 min, washed with PBS, and blocked with blocking buffer for 1 hr. […] Finally, visualization of green and/or red signals by fluorescence microscopy (Axioplan 2 imaging, Zeiss) provided information about the active replication directionality at the single-molecule level.

Take `CC[C@@]1(O)C(=O)OCc2c1cc1n(c2=O)Cc2cc3ccccc3nc2-1` [CPT, camptothecin]: the “sensitivity in cell survival assay” value in the assay with RPE1 cells [1] (FANCJ K/O RPE1 cells, CPT) is reported as “sensitive”.

For `NC(=O)NO` [HU, hydroxyurea], the “frequency of fork reversal events” value in the assay with U2OS cells (FANCJ S990A U2OS cells) is given as about 11%. Also, the “fraction of reversed replication forks” value in the assay on U2OS cells (FANCJ WT U2OS cells) is about 26%; in the assay on U2OS cells (empty vector U2OS cells), 23%.

`C=CCn1c(=O)c2cnc(Nc3ccc(N4CCN(C)CC4)cc3)nc2n1-c1cccc(C(C)(C)O)n1` [MK1775]: in assay [2], the clonogenic survival result was “greater clonogenic survival” and the “response in colony formation assay” value was “resistance”.

Regarding `CS(=O)(=O)c1ccc(-c2cnc(N)c(C(=O)Nc3ccccc3)n2)cc1` [VE-821], the “effect on PARPi sensitivity” value in the assay on BR5-R1 cells is “re-established PARPi sensitivity”. In assay [2], the clonogenic survival entry is listed as “greater clonogenic survival” and the “response in colony formation assay” value is recorded as “resistance”. Besides, in assay [3], the “replication and ssDNA gaps during stress” value is “promoted replication during stress, but with significant ssDNA gap induction”.

For `N.N.[Cl][Pt][Cl]` [cisplatin], the cisplatin response entry with PEO1 and C4-2 cells (C4-2 cells, BRCA2 proficient PEO1 reversion line) is given as “resistant”; in the assay with PEO1 and C4-2 cells (PEO1 cells, truncated BRCA2) it was “hypersensitive”. Besides, the “sensitivity in cell survival assay” value in the assay with RPE1 cells [1] (BRCA1 K/O RPE1 cells, cisplatin) is recorded as “sensitive”; in the assay on RPE1 cells [1] (FANCJ K/O RPE1 cells, cisplatin) it was “sensitive”.

Take `O=C(c1cc(Cc2n[nH]c(=O)c3ccccc23)ccc1F)N1CCN(C(=O)C2CC2)CC1` [olaparib]: the PARPi response entry was “sensitive” in assay [4] (BRCA1/2 deficient); “resistant” in assay [4] (BRCA1/2 proficient); “resistant” in assay [4] (BRCA1 and 53BP1 deficient); “resistant” in assay [4] (BRCA2 S3291A mutant); “resistant” in assay [4] (BRCA2 and CHD4 deficient); “resistant” in assay [4] (FANCJ deficient). The PARPi response result is reported as “sensitive” in assay [4] (RAD51 T131P mutant); “sensitive” in assay [4] (RAD51 T131P mutant and RADX deficient). For the same compound, the “sensitivity at therapeutic range” value is on record as “sensitive” in the assay with RPE1 cells [1] (BRCA1 K/O RPE cells); “not sensitive” in the assay on RPE1 cells [1] (control and FANCJ K/O cells). The “sensitivity in cell survival assay” value with RPE1 cells [1] (BRCA1 K/O RPE1 cells, olaparib) is “sensitive”; with RPE1 cells [1] (FANCJ K/O RPE1 cells, olaparib), “not sensitize”. Besides, the replication tract length result in the assay on RPE1 cells [5] is given as “lengthens replication tracts”.

These data come from US20220275458A1, “PREDICTION OF CANCER THERAPY EFFICACY” (UNIVERSITY OF MASSACHUSETTS, priority 2019, published 2022).
